Patent publication US20230129866A1 (PureTech LYT 100, Inc., priority 2020, published 2023)
Where two headings read alike, the source gives them in different places. Values belong to the compound of their own block, whether it stands above or below them.

Columns and labels:
[1] = Phase 1 food effect study Part 2 (Cohort 5), single 500 mg dose fed vs fasted; format: in vivo, human; conditions: LYT-100 @500 mg single dose
Method: The comparison will be based on Day 1, Day 2 and Day 3 PK plasma samples after the first dose of study drug on Day 1 under fast and fed conditions of Part 2.
Subjects will be admitted to the CRU on Day-1 and will fast overnight for at least 10 h.

[2] = 200 mg SD-559 (pirfenidone) BID, Huang et al.; in ng/mL; cited from earlier work
[3] = humans, cited from earlier work
[4] = 91-day repeat dose oral toxicity and toxicokinetics study in rats; conditions: for Ratio of exposure (AUC), Group 4 (LYT-100 at 750 mg/kg) analyte / Group 5 (SD-559 at 750 mg/kg) analyte: LYT-100/SD-559, SD-790/SD-788, SD-1051/SD-1050, SD-789 Group 4/SD-789 Group 5; for Cmax in rat relative to human: male rat Day 1 vs human; for Exposure in rats relative to humans after 28 days of daily dosing: male rat Day 28 vs human; for Exposure (AUC) in rat relative to human: male rats 750 mg/kg Day 1 vs human single 801 mg dose; for Dose proportionality of AUC0-24 over 250 to 750 mg/kg / Dose proportionality of Cmax over 250 to 750 mg/kg: rats dosed with SD-560, Groups 2 to 4, general statement
[5] = Phase 1 multiple ascending dose (MAD) study Part 1, healthy volunteers (PK and safety); conditions: for Accumulation ratios (AUC96-108/AUC0-12) across all dose groups: 100 mg, 250 mg, 500 mg, and 750 mg BID, Cohorts 1-4, FIG. 19; for Average ratio to the parent (M/P) by AUC: range in brackets
[6] = Single 801 mg dose, double-blinded, cross-over study of LYT-100 vs pirfenidone in healthy volunteers (PK and safety); conditions: for Cmax (ng/mL), Mean / AUC0-t (hr*ng/mL), Mean / tmax (hr), Median / % AUC extrap, Mean / AUC(inf) (hr*ng/mL), Mean / Kel (1/hr), Mean / t1/2 (hr), Mean: fed; for Cmax (ng/mL), Mean: healthy volunteers; for Cmax (ng/mL), Mean / AUC0-t (hr*ng/mL), Mean / tmax (hr), Median: n = 24
[7] = Treatment = LYT-100, single 801 mg oral dose
[8] = Treatment = LYT-100, single 801 mg oral dose, n = 24 (LYT-110 n = 23)
[9] = Treatment = Pirfenidone, single 801 mg oral dose
[10] = Treatment = Pirfenidone, single 801 mg oral dose, n = 24 (LYT-111 n = 19)
[11] = after LYT-100 801 mg, metabolite/LYT-100
[12] = after LYT-100 801 mg, metabolite/LYT-100, molecular weight corrected
[13] = after Pirfenidone (LYT-101) 801 mg, metabolite/LYT-101
[14] = after Pirfenidone (LYT-101) 801 mg, metabolite/LYT-101, molecular weight corrected

AUC, % Change Fed vs Fasted [1]: −5%
Cmax, % Change Fed vs Fasted [1]: −1.7%
Tmax, % Change Fed vs Fasted [1]: +33%
Structure (SMILES): O=C(O)c1ccc(=O)n(-c2ccccc2)c1 [LYT-105, 5-carboxy-pirfenidone]
observed Cmax [2]: 1476
Plasma exposure as percent of the exposure to pirfenidone ([3]; Huang 2013): approximately 50%
Share of recovered drug material excreted as this metabolite ([3]; urine, after oral pirfenidone): > 95%
Ratio of exposure (AUC), Group 4 (LYT-100 at 750 mg/kg) analyte / Group 5 (SD-559 at 750 mg/kg) analyte ([4]; Day 1, Female rats): 0.49
Ratio of exposure (AUC), Group 4 (LYT-100 at 750 mg/kg) analyte / Group 5 (SD-559 at 750 mg/kg) analyte ([4]; Day 1, Male rats): 0.45
Ratio of exposure (AUC), Group 4 (LYT-100 at 750 mg/kg) analyte / Group 5 (SD-559 at 750 mg/kg) analyte ([4]; Day 28, Female rats): 0.71
Ratio of exposure (AUC), Group 4 (LYT-100 at 750 mg/kg) analyte / Group 5 (SD-559 at 750 mg/kg) analyte ([4]; Day 28, Male rats): 0.57
Cmax in rat relative to human [4]: ~9 fold
Exposure in rats relative to humans after 28 days of daily dosing [4]: ~7 fold
Exposure (AUC) in rat relative to human [4]: about 8 fold
Dose proportionality of AUC0-24 over 250 to 750 mg/kg [4]: dose proportional
Dose proportionality of Cmax over 250 to 750 mg/kg [4]: approximately dose proportional
Lower Cmax and exposure of SD-789 after SD-560 than of SD-789 after SD-559 ([4]; rats, 750 mg/kg each): approximately 50%
Accumulation ratios (AUC96-108/AUC0-12) across all dose groups [5]: ~1
Dose dependence of AUC96-108 across all dose Cohorts ([5]; 100 to 1000 mg BID, FIG. 25): linear dose proportionality
Average ratio to the parent (M/P) by AUC ([5]; Cohort 4, 750 mg BID): 0.45 (0.37-0.50)
Average ratio to the parent (M/P) by AUC ([5]; Cohort 6, 1000 mg BID): 0.56 (0.44-0.66)
observed Cmax ([5]; LYT-100 100 mg BID with food): 567 ng/mL
% difference (vs. 200 mg SD-559) Cmax ([5]; LYT-100 100 mg vs Huang et al. data extrapolated assuming dose proportionality, LYT-100 vs SD-559, SD-789 vs SD-789): −23%
observed Cmax ([5]; LYT-100 250 mg BID with food): 1170 ng/mL
% difference (vs. 200 mg SD-559) Cmax ([5]; LYT-100 250 mg vs Huang et al. data extrapolated assuming dose proportionality): −37%
observed Cmax ([5]; LYT-100 500 mg BID with food): 2360 ng/mL
% difference (vs. 200 mg SD-559) Cmax ([5]; LYT-100 500 mg vs Huang et al. data extrapolated assuming dose proportionality): −36%
observed Cmax ([5]; LYT-100 750 mg BID with food): 3370 ng/mL
% difference (vs. 200 mg SD-559) Cmax ([5]; LYT-100 750 mg vs Huang et al. data extrapolated assuming dose proportionality): −39%
observed Cmax ([5]; LYT-100 1000 mg BID with food): 4940 ng/mL
% difference (vs. 200 mg SD-559) Cmax ([5]; LYT-100 1000 mg vs Huang et al. data extrapolated assuming dose proportionality): −33%
Average ratio of metabolite to the parent (mtp) by AUC ([5]; MAD study, all doses): 0.45
Cmax (ng/mL), Mean [6, 7]: 3970 ng/mL
AUC0-t (hr*ng/mL), Mean [6, 7]: 23090 ng·h/mL
tmax (hr), Median [6, 7]: 2.50 h
% AUC extrap, Mean [6, 8]: 1.13%
AUC(inf) (hr*ng/mL), Mean [6, 8]: 23350 ng·h/mL
Kel (1/hr), Mean [6, 8]: 0.262 h⁻¹
t1/2 (hr), Mean [6, 8]: 2.91 h
Cmax (ng/mL), Mean [6, 9]: 5241 ng/mL
AUC0-t (hr*ng/mL), Mean [6, 9]: 26932 ng·h/mL
tmax (hr), Median [6, 9]: 3.00 h
% AUC extrap, Mean [6, 10]: 0.843%
AUC(inf) (hr*ng/mL), Mean [6, 10]: 27159 ng·h/mL
Kel (1/hr), Mean [6, 10]: 0.288 h⁻¹
t1/2 (hr), Mean [6, 10]: 2.55 h
Metabolite/Parent Ratio, AUC0-∞, Median [6, 11]: 32.3%
Metabolite/Parent Ratio, Cmax, Median [6, 11]: 33.5%
Metabolite/Parent Ratio, AUC0-∞, Mean [6, 12]: 43.8%
Metabolite/Parent Ratio, Cmax, Mean [6, 12]: 43.3%
Metabolite/Parent Ratio, AUC0-∞, Mean ([6]; after LYT-100 801 mg, metabolite/LYT-100, molecular weight corrected, listed as 5-carboxy-pirfenidone): 43.8%
Metabolite/Parent Ratio, AUC0-∞, Median [6, 13]: 53.7%
Metabolite/Parent Ratio, Cmax, Median [6, 13]: 57.5%
Metabolite/Parent Ratio, AUC0-∞, Mean [6, 14]: 65.9%
Metabolite/Parent Ratio, Cmax, Mean [6, 14]: 68.1%
Metabolite/Parent Ratio, AUC0-∞, Mean ([6]; after Pirfenidone (LYT-101) 801 mg, metabolite/LYT-101, molecular weight corrected, listed as 5-carboxy-pirfenidone): 65.9%
Reduction of AUC after LYT-100 relative to pirfenidone ([6]; single 801 mg dose each): approximately 15%
Reduction of Cmax after LYT-100 relative to pirfenidone ([6]; single 801 mg dose each): ~25%

Structure (SMILES): O=c1ccc(CO)cn1-c1ccccc1 [SD-788, 5-hydroxymethyl-pirfenidone]
Formation greater in terms of overall systemic exposure (AUC) after administration of LYT-100 ([6]; LYT-100 vs pirfenidone, single 801 mg dose): approximately 50%
Cmax (ng/mL), Mean [6, 9]: 17.1 ng/mL
AUC0-t (hr*ng/mL), Mean [6, 9]: 75.8 ng·h/mL
tmax (hr), Median [6, 9]: 2.50 h
% AUC extrap, Mean [6, 10]: 10.3%
AUC(inf) (hr*ng/mL), Mean [6, 10]: 89.7 ng·h/mL
Kel (1/hr), Mean [6, 10]: 0.367 h⁻¹
t1/2 (hr), Mean [6, 10]: 2.04 h
Metabolite/Parent Ratio, AUC0-∞, Median [6, 13]: 0.2%
Metabolite/Parent Ratio, Cmax, Median [6, 13]: 0.2%
Metabolite/Parent Ratio, AUC0-∞, Mean [6, 14]: 0.2%
Metabolite/Parent Ratio, Cmax, Mean [6, 14]: 0.2%

Structure (SMILES): [2H]C([2H])(O)c1ccc(=O)n(-c2ccccc2)c1 [SD-790, d2-5-hydroxymethyl-pirfenidone]
Ratio of exposure (AUC), Group 4 (LYT-100 at 750 mg/kg) analyte / Group 5 (SD-559 at 750 mg/kg) analyte ([4]; Day 1, Female rats): 2.50
Ratio of exposure (AUC), Group 4 (LYT-100 at 750 mg/kg) analyte / Group 5 (SD-559 at 750 mg/kg) analyte ([4]; Day 1, Male rats): 2.22
Ratio of exposure (AUC), Group 4 (LYT-100 at 750 mg/kg) analyte / Group 5 (SD-559 at 750 mg/kg) analyte ([4]; Day 28, Female rats): 2.59
Ratio of exposure (AUC), Group 4 (LYT-100 at 750 mg/kg) analyte / Group 5 (SD-559 at 750 mg/kg) analyte ([4]; Day 28, Male rats): 2.54
Cmax in rat relative to human [4]: ~1825 fold
Exposure in rats relative to humans after 28 days of daily dosing [4]: ~1600 fold
Exposure (AUC) in rat relative to human [4]: about 1250 fold
Dose proportionality of AUC0-24 over 250 to 750 mg/kg [4]: dose proportional
Dose proportionality of Cmax over 250 to 750 mg/kg [4]: dose proportional
Exposure and Cmax vs the non-deuterated corresponding metabolite (SD-788) from SD-559 ([4]; rats, 750 mg/kg each, all days, both genders): almost twice
Accumulation ratios (AUC96-108/AUC0-12) across all dose groups [5]: ~1
Average ratio to the parent (M/P) by AUC ([5]; Cohort 4, 750 mg BID): 0.0025 (0.0020-0.0029)
Average ratio to the parent (M/P) by AUC ([5]; Cohort 6, 1000 mg BID): 0.0028 (0.0018-0.0038)
Cmax (ng/mL), Mean [6, 7]: 20.6 ng/mL
AUC0-t (hr*ng/mL), Mean [6, 7]: 111 ng·h/mL
tmax (hr), Median [6, 7]: 2.50 h
% AUC extrap, Mean [6, 8]: 10.1%
AUC(inf) (hr*ng/mL), Mean [6, 8]: 124 ng·h/mL
Kel (1/hr), Mean [6, 8]: 0.294 h⁻¹
t1/2 (hr), Mean [6, 8]: 2.76 h
Metabolite/Parent Ratio, AUC0-∞, Median [6, 11]: 0.2%
Metabolite/Parent Ratio, Cmax, Median [6, 11]: 0.2%
Metabolite/Parent Ratio, AUC0-∞, Mean [6, 12]: 0.2%
Metabolite/Parent Ratio, Cmax, Mean [6, 12]: 0.2%

Structure (SMILES): Cc1ccc(=O)n(-c2ccc(O)cc2)c1 [SD-1050, 4′-hydroxy-pirfenidone]
Metabolite/Parent Ratio, Cmax, Median [6, 13]: 0.0%
Metabolite/Parent Ratio, Cmax, Mean [6, 14]: 0.0%

Structure (SMILES): [2H]C([2H])([2H])c1ccc(=O)n(-c2ccc(O)cc2)c1 [SD-1051, d3-4′-hydroxy-pirfenidone]
Ratio of exposure (AUC), Group 4 (LYT-100 at 750 mg/kg) analyte / Group 5 (SD-559 at 750 mg/kg) analyte ([4]; Day 1, Female rats): 21.77
Ratio of exposure (AUC), Group 4 (LYT-100 at 750 mg/kg) analyte / Group 5 (SD-559 at 750 mg/kg) analyte ([4]; Day 1, Male rats): 34.51
Ratio of exposure (AUC), Group 4 (LYT-100 at 750 mg/kg) analyte / Group 5 (SD-559 at 750 mg/kg) analyte ([4]; Day 28, Female rats): 38.04
Dose proportionality of AUC0-24 over 250 to 750 mg/kg [4]: increased dose proportionally on Day 1
Dose proportionality of Cmax over 250 to 750 mg/kg [4]: less than dose proportional
Accumulation ratios (AUC96-108/AUC0-12) across all dose groups [5]: ~1
Average ratio to the parent (M/P) by AUC ([5]; Cohort 4, 750 mg BID): 0.0017 (0.0012-0.0022)
Average ratio to the parent (M/P) by AUC ([5]; Cohort 6, 1000 mg BID): 0.0037 (0.0030-0.0058)
Quantifiability in human plasma ([6]; after LYT-100): not quantifiable
Metabolite/Parent Ratio, AUC0-∞, Median [6, 11]: 0.1%
Metabolite/Parent Ratio, Cmax, Median [6, 11]: 0.1%
Metabolite/Parent Ratio, AUC0-∞, Mean [6, 12]: 0.1%
Metabolite/Parent Ratio, Cmax, Mean [6, 12]: 0.1%
